IC50 data for 7 compounds are collected here from US20260250320A1, “LIPIDATED PEPTIDE INHIBITORS OF INTERLEUKIN-23 RECEPTOR” (Janssen Pharmaceutica NV, priority 2023, published 2026).

*1 amine or outer side, *2 acyl side, *3 side chain or, on linkers, in order; H or OH if unused. Where a SMILES comes first, the peptide text is derived from it. Bridges are numbered along the chain shown (N, C = ends). Side-chain parts run from the residue outwards. [ ]: non-standard residue; d: D form. The star is where a group is joined. X29 = C[C@H](CCCCNC(=O)COCCOCCNC(=O)COCCOCCNC(=O)CC[C@H](NC(=O)CCCCCCCCCCCCCCCCC(=O)O)C(=O)O)C(=O)C[C@H](C(=O)[*:1])C(C)(C)S[*:2]; Me3N+(CH2)2O(CH2)2O(CH2)2CO = C[N+](C)(C)CCOCCOCCC(=O)*; PEG12 = NCCOCCOCCOCCOCCOCCOCCOCCOCCOCCOCCOCCOCCC(=O)O; CH2CH2OCH2CH2OCH2CH2NMe3+ = C[N+](C)(C)CCOCCOCC*; Trp(7-Me) = Cc1cccc2c(C[C@H](N)C(=O)O)c[nH]c12; C18 diacid = O=C(O)CCCCCCCCCCCCCCCCC(=O)*; X20 = CC(=O)CCCCC[C@H](N[*:1])C(=O)[*:2]; γGlu = O=C(O)[C@H](CCC(=O)[*:2])N[*:1]; 2Nal = N[C@@H](Cc1ccc2ccccc2c1)C(=O)O; AEF = NCCOc1ccc(C[C@H](N)C(=O)O)cc1; 3Pal = N[C@@H](Cc1cccnc1)C(=O)O; Lys(Me) = CNCCCC[C@H](N)C(=O)O; Pen = CC(C)(S)[C@H](N)C(=O)O; Thp = NC1(C(=O)O)CCOCC1; X1 = C[N+](C)(C)CCCCC*; AEEA = NCCOCCOCC(=O)O; Sar = CNCC(=O)O

One experiment deals with T1, IL-23R (Homo sapiens, UniProt Q5VWK5).
T1 construct: HEK293 cells containing IL-23R, IL-12Rβ1 and a firefly luciferase reporter gene driven by a STAT-inducible promoter (Promega); host or cells: HEK293
T1 sequence (Q5VWK5 24-629): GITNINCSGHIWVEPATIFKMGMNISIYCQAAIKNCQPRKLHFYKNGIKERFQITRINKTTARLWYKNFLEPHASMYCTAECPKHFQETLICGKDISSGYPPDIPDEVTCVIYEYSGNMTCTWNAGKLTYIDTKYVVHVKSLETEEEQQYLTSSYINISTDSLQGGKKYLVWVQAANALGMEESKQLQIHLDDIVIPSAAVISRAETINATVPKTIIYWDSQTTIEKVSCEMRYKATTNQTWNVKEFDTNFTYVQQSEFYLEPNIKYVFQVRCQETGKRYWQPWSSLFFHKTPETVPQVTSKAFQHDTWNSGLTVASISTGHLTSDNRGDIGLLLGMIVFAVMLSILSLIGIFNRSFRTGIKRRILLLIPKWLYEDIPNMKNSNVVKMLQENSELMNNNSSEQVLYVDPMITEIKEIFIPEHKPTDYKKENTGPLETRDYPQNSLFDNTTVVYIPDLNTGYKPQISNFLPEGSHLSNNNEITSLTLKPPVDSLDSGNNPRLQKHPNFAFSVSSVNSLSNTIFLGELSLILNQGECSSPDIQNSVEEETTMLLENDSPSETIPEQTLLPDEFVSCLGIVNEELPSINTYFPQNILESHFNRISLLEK
Nature of the experiment: IL23R Reporter Assay. Format: cell-based. Particulars: HEK293 cells containing IL-23R, IL-12Rβ1 and STAT-inducible firefly luciferase reporter; 10 ng/mL IL-23 (EC90); 5 h. Put shortly:
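IC50 values were fitted with a 4-parameter Hill equation to luciferase signal, scaled between IL-23-only wells (0% inhibition) and 30 μM reference inhibitor (100%). The readout was a STAT-inducible reporter in IL-23R/IL-12Rβ1 HEK293 cells, stimulated with added 10 ng/mL IL-23 (EC90) for 5 h at 37° C and developed with BioGlo.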
(In a reporter assay the amount or activity of a reporter protein is the signal.)

The subject of experiment [1] is IL-23-stimulated phosphorylated STAT3 in peripheral blood mononuclear cells (PBMCs). Nature of the experiment: PBMC pSTAT3 Assay. Type of experiment: cell-based. Particulars: PBMCs from healthy donors; 30 min preincubation with peptide; IL-23 5 ng/mL for 30 min; phospho-STAT3 by MSD. Put shortly: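 Phospho-STAT3 quantified by Meso Scale assay in lysates of PBMCs exposed to IL-23 (5 ng/mL, 30 min, 37 °C) after 30 min peptide pretreatment. Cells were cryopreserved donor PBMCs activated 4 days with anti-CD3 plus IL-1β (100 ng/mL) and starved ~4 h; IC50 reported.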

One may read the IC50 as the concentration needed to halve the response being measured.

In the case of `CC(=O)N(C)CCCC[C@H](CC(=O)C1(NC(=O)[C@H](Cc2ccc3ccccc3c2)NC(=O)[C@H](Cc2ccc(OCCNC(=O)C[N+](C)(C)CCNC(=O)COCCOCCNC(=O)COCCOCCNC(=O)CC[C@H](NC(=O)CCCCCCCCCCCCCCCCC(=O)O)C(=O)O)cc2)NC(=O)[C@@H]2CCCCC(C)[C@H](NC(=O)CCOCCOCC[N+](C)(C)C)C(=O)N[C@@H](CC(=O)N(C)C)N[C@@H]([C@@H](C)O)C(=O)N[C@@H](Cc3c[nH]c4c(C)cccc34)C(=O)N[C@@H](CCCCN(C)C(C)=O)C(=O)N2)CCOCC1)C(=O)C[C@@H](CC(N)=O)C(=O)N[C@@H](Cc1cccnc1)C(=O)N(C)CC(=O)N(C)C` (stereo partly drawn) [compound 154, cPEG3aCO-Pen(3)-N(N(Me)2)-T-7MeW-K(NMeAc)-Pen(3)-AEF(SP6PEG2PEG2gEC18OH)-2Nal-THP-K(NMeAc)-N-3Pya-Sar-CON(Me)2], the figures for the concentration for half-maximal inhibition (IC50) (at IL-23R; in experiment [1]) were less than 50 nM and less than 0.5 nM, respectively.
Taken in the same sequence, the figures for `CC(=O)N(C)CCCC[C@@H]1NC(=O)[C@H](Cc2c[nH]c3c(C)cccc23)NC(=O)[C@H]([C@@H](C)O)NC(=O)[C@H](CC(=O)N(C)C)NC(=O)[C@@H](NC(=O)CCOCCOCC[N+](C)(C)C)C(C)(C)SSC(C)(C)[C@@H](C(=O)N[C@@H](Cc2ccc(OCCOCCOCC[N+](C)(C)C)cc2)C(=O)N[C@@H](Cc2ccc3ccccc3c2)C(=O)NC2(C(=O)N[C@@H](CCCCNC(=O)COCCOCCNC(=O)COCCOCCNC(=O)CC[C@H](NC(=O)CCCCCCCCCCCCCCCCC(=O)O)C(=O)O)C(=O)N[C@@H](CC(N)=O)C(=O)N[C@@H](Cc3cccnc3)C(=O)N(C)CC(=O)N(C)C)CCOCC2)NC1=O` [compound 156, cPEG3aCO-Pen(3)-N(N(Me)2)-T-7MeW-K(NMeAc)-Pen(3)-APEG3F-2Nal-THP-K(PEG2PEG2gEC18OH)-N-3Pya-Sar-CON(Me)2] ({Me3N+(CH2)2O(CH2)2O(CH2)2CO}-[Pen]D(NMe2)T[Trp(7-Me)][Lys(Me)](Ac)[Pen]Y(CH2CH2OCH2CH2OCH2CH2NMe3+)[2Nal][Thp]K([AEEA-AEEA-γGlu-C18 diacid])N[3Pal][Sar]-NMe2; disulfide 1-6) were 50 to 500 nM and less than 0.5 nM.
Taken in the same sequence, the figures for `CC(=O)N(C)CCCC[C@H](NC(=O)CNC(=O)[C@H](Cc1ccc2ccccc2c1)NC(=O)[C@H](Cc1ccc(OCCCCC[N+](C)(C)C)cc1)NC(=O)[C@H]1NC(=O)[C@H](CCCCNC(=O)COCCOCCNC(=O)COCCOCCNC(=O)CC[C@H](NC(=O)CCCCCCCCCCCCCCCCC(=O)O)C(=O)O)NC(=O)[C@H](Cc2c[nH]c3c(C)cccc23)NC(=O)[C@H]([C@@H](C)O)NC(=O)[C@H](CC(=O)N(C)C)NC(=O)[C@@H](NC(=O)CCOCCOCC[N+](C)(C)C)C(C)(C)SSC1(C)C)C(=O)N[C@@H](CC(N)=O)C(=O)N[C@@H](Cc1cccnc1)C(=O)N(C)CC(=O)N(C)C` [compound 157, cPEG3aCO-Pen(3)-N(N(Me)2)-T-7MeW-K(PEG2PEG2gEC18OH)-Pen(3)-APEG3F-2Nal-THP-K(NMeAc)-N-3Pya-Sar-CON(Me)2] ({Me3N+(CH2)2O(CH2)2O(CH2)2CO}-[Pen]D(NMe2)T[Trp(7-Me)]K([AEEA-AEEA-γGlu-C18 diacid])[Pen]Y(X1)[2Nal]G[Lys(Me)](Ac)N[3Pal][Sar]-NMe2; disulfide 1-6) were 50 to 500 nM and 0.5 to 5 nM.
For the compound `C=C(O)CCCCCCCCCCCCCCCCC(=O)N[C@@H](CCC(=O)NCCOCCOCC(=O)NCCCCCOCC(=O)NCCCC[C@@H]1NC(=O)[C@@H](NC(=O)CCOCCOCC[N+](C)(C)C)CCCC[C@@H](C(=O)N[C@@H](Cc2ccc(OCCOCCOCC[N+](C)(C)C)cc2)C(=O)N[C@@H](Cc2ccc3ccccc3c2)C(=O)NC2(C(=O)N[C@@H](CCCCN(C)C(C)=O)C(=O)N[C@@H](CC(N)=O)C(=O)N[C@@H](Cc3cccnc3)C(=O)N(C)CC(=O)N(C)C)CCCCC2)NC(=O)[C@H](CCCCN(C)C(C)=O)NC(=O)[C@H](Cc2c[nH]c3c(C)cccc23)NC(=O)[C@H]([C@@H](C)O)NC1=O)C(=O)O` [compound 158, cPEG3aCO-Pen(3)-K(PEG2PEG2gEC18OH)-T-7MeW-K(NMeAc)-Pen(3)-APEG3F-2Nal-THP-K(NMeAc)-N-3Pya-Sar-CON(Me)2], the IC50 at IL-23R is 50 to 500 nM; in experiment [1], 0.5 to 5 nM.
Taken in the same sequence, the figures for `CC(=O)N(C)CCCC[C@@H]1NC(=O)[C@H](Cc2c[nH]c3c(C)cccc23)NC(=O)[C@H]([C@@H](C)O)NC(=O)[C@H](CC(=O)N(C)C)NC(=O)[C@@H](CC(=O)[C@H](C)CCCCNC(=O)COCCOCCNC(=O)COCCOCCNC(=O)CC[C@H](NC(=O)CCCCCCCCCCCCCCCCC(=O)O)C(=O)O)C(C)(C)SSC(C)(C)[C@@H](C(=O)N[C@@H](Cc2ccc(OCCOCCOCC[N+](C)(C)C)cc2)C(=O)N[C@@H](Cc2ccc3ccccc3c2)C(=O)NC2(C(=O)N[C@@H](CCCCN(C)C(C)=O)C(=O)N[C@@H](CC(N)=O)C(=O)N[C@@H](Cc3cccnc3)C(=O)N(C)CC(=O)N(C)C)CCOCC2)NC1=O` [compound 159, cPEG3aCO-k(PEG2PEG2gEC18OH)-Pen(3)-N(N(Me)2)-T-7MeW-K(NMeAc)-Pen(3)-APEG3F-2Nal-THP-K(NMeAc)-N-3Pya-Sar-CON(Me)2] (D(NMe2)T[Trp(7-Me)][Lys(Me)](Ac)[Pen]Y(CH2CH2OCH2CH2OCH2CH2NMe3+)[2Nal][Thp][Lys(Me)](Ac)N[3Pal][Sar]-NMe2; linker N-5 via X29) were less than 50 nM and less than 0.5 nM.
Taken in the same sequence, the figures for `CC(=O)NCCCC[C@@H]1NC(=O)[C@H](Cc2c[nH]c3c(C)cccc23)NC(=O)[C@H]([C@@H](C)O)NC(=O)[C@H](CC(N)=O)NC(=O)[C@@H](NC(C)=O)C(C)(C)SSC(C)(C)[C@@H](C(=O)N[C@@H](Cc2ccc(OCCN)cc2)C(=O)N[C@@H](Cc2ccc3ccccc3c2)C(=O)NC2(C(=O)N[C@@H](CCC(=O)O)C(=O)N[C@@H](CC(N)=O)C(=O)N[C@@H](Cc3cccnc3)C(=O)N(C)CC(=O)N[C@@H](CCCCNC(=O)COCCOCCNC(=O)COCCOCCNC(=O)CC[C@H](NC(=O)CCCCCCCCCCCCCCCCC(=O)O)C(=O)O)C(N)=O)CCOCC2)NC1=O` [compound 160, cPEG3aCO-r-Pen(3)-N-T-7MeW-K(Ac)-Pen(3)-AEF-2Nal-THP-E-N-3Pya-Sar-K(PEG2PEG2gEC18OH)-CONH2] were 50 to 500 nM and less than 0.5 nM.
Taken in the same sequence, the figures for `CC(=O)CCCCC[C@@H]1NC(=O)[C@H](Cc2c[nH]c3c(C)cccc23)NC(=O)[C@H]([C@@H](C)O)NC(=O)[C@H](CC(N)=O)NC(=O)[C@@H](NC(C)=O)C(C)(C)SSC(C)(C)[C@@H](C(=O)N[C@@H](Cc2ccc(OCCN)cc2)C(=O)N[C@@H](CCC(=O)O)C(=O)N[C@@H](CC(N)=O)C(=O)N[C@@H](Cc2cccnc2)C(=O)N(C)CC(=O)N[C@@H](CCCCNC(=O)CCOCCOCCOCCOCCOCCOCCOCCOCCOCCOCCOCCOCCNC(=O)CC[C@H](NC(=O)CCCCCCCCCCCCCCCCC(=O)O)C(=O)O)C(N)=O)NC1=O` [compound 161, MeCO-Pen(3)-N-T-7MeW-K(Ac)-Pen(3)-AEF-2Nal-THP-E-N-3Pya-Sar-K(PEG12gEC18OH)-CONH2] (Ac-[Pen]NT[Trp(7-Me)][X20][Pen][AEF]EN[3Pal][Sar]K([PEG12-γGlu-C18 diacid])-NH2; disulfide 1-6) were less than 50 nM and less than 0.5 nM.
